{
  "source": "ChEMBL document CHEMBL1131680",
  "about": "“Structure-based design of diaminopyranosides as a novel inhibitor core unit of HIV proteases” (Bioorg Med Chem Lett, 1999)",
  "data": [
    {"biological_target": "Human immunodeficiency virus type 1 protease (Human immunodeficiency virus 1, UniProt Q72874)", "test": "Inhibitory concentration required to inhibit hydrolytic activity of recombinant HIV-1 PR (human immunodeficiency virus protease)", "units": {"IC50": "µM"}, "values": [
      {"smiles": "NC1C(OCc2ccccc2)OC(CO)C(OCc2ccccc2)C1N", "note": "(stereo not drawn)", "IC50": 205},
      {"smiles": "NC1C(OCc2ccccc2)OC(COC(=O)Nc2ccccc2)C(OCc2ccccc2)C1N", "note": "(stereo not drawn)", "IC50": 28},
      {"smiles": "[N-]=[N+]=NC1C(N)C(OCc2ccccc2)OC(CO)C1OCc1ccccc1", "note": "(stereo not drawn)", "IC50": "> 1"}
    ]}
  ]
}
